In publication PMC5298233, “Substrate-analogous inhibitors exert antimalarial action by targeting the Plasmodium lactate transporter PfFNT at nanomolar scale” (PLoS Pathogens, 2017):

Biological target: PfFNT G107S (Plasmodium falciparum, UniProt O77389, G107S)
Test: cell-based
Details: for IC50: read-out: IC50 (PfFNT G107S / yeast)

SMILES | IC50 | relative efficiency in blocking PfFNT G107S (mutant versus wildtype) (compared with BH-296)
COc1ccc(C(=O)/C=C(\O)C(F)(F)C(F)(F)F)cc1 [BH-296] | 2.3 µM | 
COc1ccc2c(c1)OC(O)(C(F)(F)C(F)(F)F)CC2=O (stereo not shown) [MMV007839] | 21 µM | 
CC(=O)C=C(O)C(F)(F)C(F)(F)F [Pharmacophore, 5,5,6,6,6-pentafluoro-4-hydroxyhex-3-en-2-one] | 8.1 µM | four times better relative efficiency than BH-296
